Laboratory results taken from paper PMC7496768, “Understanding Substrate Selectivity of Phoslactomycin Polyketide Synthase by Using Reconstituted in Vitro Systems” (Chembiochem, 2020).

Target: T1, Npt (Streptomyces platensis, UniProt A0AAE6NLM9)
T1 construct: recombinant, expressed in E. coli BL21 (DE3), purified
T1 sequence (A0AAE6NLM9 1-219): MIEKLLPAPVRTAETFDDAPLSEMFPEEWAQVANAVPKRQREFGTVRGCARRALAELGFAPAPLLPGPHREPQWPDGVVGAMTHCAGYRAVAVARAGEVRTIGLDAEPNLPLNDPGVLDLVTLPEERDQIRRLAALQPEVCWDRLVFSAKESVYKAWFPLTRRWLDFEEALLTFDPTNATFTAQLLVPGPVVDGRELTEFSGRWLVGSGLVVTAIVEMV
Assay: phosphopantetheinylation of apo-ACPs
Type: biochemical
Settings: apo-Pn ACPs as acceptor

Compound: CC(C)(COP(=O)(O)OP(=O)(O)OC[C@H]1O[C@@H](n2cnc3c(N)ncnc32)[C@H](O)[C@@H]1OP(=O)(O)O)[C@@H](O)C(=O)NCCC(=O)NCCS [CoA-SH]
- phosphopantetheinylation of apo-ACPs: Npt serves as a bona fide Ppant transferase that is able to activate apo‐Pn_ACPs
